Columns and labels:
[1] = logP determination by HPLC on reversed phase column (C 18), EEC Directive 79/831 Annex V.A8; assay type: physicochemical; details: reversed phase C18 HPLC column; pH=2.3
Procedure: Determination of the logP values indicated in Table 1 took place in accordance with EEC Directive 79/831 Annex V.A8 by HPLC (high performance liquid chromatography) on a reversed phase column (C 18). Temperature: 43° C. (a) Eluent for determination in the acidic range: 0.1% aqueous phosphoric acid, acetonitrile; linear gradient from 10% acetonitrile to 90% acetonitrile—corresponding measured results are marked with ^a) in Table 1. Calibration took place with unbranched alkan-2-ones (having 3 to 16 carbon atoms) whose logP values are known (determination of the logP values on the basis of the retention times by linear interpolation between two consecutive alkanones).

weeds [2] = experiment: Pre-emergence test (Example A), effect on weeds; assay type: in vivo; details: soil sprayed 24 hours after sowing, assessed after three weeks
Procedure: To produce an expedient preparation of active substance, 1 part by weight of active substance is mixed with the stated amount of solvent, the stated amount of emulsifier is added and the concentrate is diluted with water to the required concentration.
Seeds of the test plants are sown in normal soil. After 24 hours, the soil is sprayed with the active substance preparation in such a way that the respective desired application rate of active substance per unit area is achieved. The active substance concentration in the spray liquor is selected so that the respective required application rate of active substance is achieved with 1000 litres of water per hectare.
After three weeks, the degree of damage to the plants is assessed in % damage by comparison with the development of the untreated control.

weeds [3] = experiment: Post-emergence test (Example B), effect on weeds; assay type: in vivo; details: test plants 5-15 cm high sprayed, assessed after three weeks
Procedure: To produce an expedient preparation of active substance, 1 part by weight of active substance is mixed with the stated amount of solvent, the stated amount of emulsifier is added, and the concentrate is diluted with water to the required concentration.
The active substance preparation is used to spray test plants which are 5-15 cm high in such a way that the respective desired application rate of active substance per unit area is achieved. The concentration of the spray liquor is chosen so that the respective required application rates of active substance are achieved in 1000 l of water/ha.
After three weeks, the degree of damage to the plants is assessed in % damage by comparison with the development of the untreated control. The meanings are:
0%=no effect (as untreated control)

SMILES | chromatographic logP [1] | effect on weeds (degree of damage vs untreated control) (weeds [2]) | effect on weeds (degree of damage vs untreated control) (weeds [3])
N#C/N=C1\SCCN1Cc1cc(C(F)(F)F)ccc1C(=O)O [Example (II-2), 2-[(2-cyanoimino-1,3-thiazolidin-3-yl)methyl]-4-trifluoro-methylbenzoic acid] | 2.01 | – | –
N#C/N=C1\SCCN1Cc1cc(C(F)(F)F)ccc1C(=O)C1C(=O)CCCC1=O [Example 2, 3-[2-[(2,6-dioxocyclohexyl)carbonyl]-5-trifluoromethyl-benzyl]-1,3-thiazolidin-2-ylidenecyanamide] | 2.54 | strong effect on weeds | –
COC(=O)c1ccc(C(F)(F)F)cc1CN1CCS/C1=N\C#N [Example (IIa-2), methyl 2-[(2-cyanoimino-1,3-thiazolidin-3-yl)methyl]-4-trifluoromethylbenzoate] | 2.53 | – | –
N#C/N=C1\SCCN1Cc1c(Cl)ccc(C(=O)C2C(=O)CCCC2=O)c1Cl [Example 1, 3-[2,6-dichloro-3-[(2,6-dioxocyclohexyl)carbonyl]benzyl]-1,3-thiazolidin-2-ylidenecyanamide] | – | strong effect on weeds | strong effect on weeds

— patent publication US20040097376A1, “Substituted aryl ketones and their use as herbicides” (priority 2000, published 2004)
